Columns and labels:
Experiment in all cases: relative viability (nuclei count vs DMSO), 5 days (fraction); higher = more cells survive
NCI-H322M = test system: NCI-H322M
Summary of the method: (§1)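 A single step with final 0.05% Triton X-100, 1% formaldehyde and 1 ug/ml Hoechst fixed the cells and stained nuclei 5 days after treatment. Lung cancer cell lines in 1536-well plates had been treated by pin tool the day after seeding with one drug alone or a fixed anchor-drug dose plus five library-drug doses (not always all listed) in √10 steps, and nuclei were counted on 4× images. Relative viability is the ratio of nuclei in treated wells to nuclei in vehicle wells, taken as the median of duplicate plates.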

SK-LU-1 = test system: SK-LU-1
Summary of the method: as §1

NCI-H3122 = test system: NCI-H3122
Summary of the method: as §1

NCI-H1915 = test system: NCI-H1915
Summary of the method: as §1

EMC-BAC-2 = test system: EMC-BAC-2
Summary of the method: as §1

NCI-H1975 = test system: NCI-H1975
Summary of the method: as §1

NCI-H2342 = test system: NCI-H2342
Summary of the method: as §1

NCI-H1437 = test system: NCI-H1437
Summary of the method: as §1

SW 900 = test system: SW 900
Summary of the method: as §1

LK-2 = test system: LK-2
Summary of the method: as §1

NCI-H838 = test system: NCI-H838
Summary of the method: as §1

NCI-H1944 = test system: NCI-H1944
Summary of the method: as §1

NCI-H460 = test system: NCI-H460
Summary of the method: as §1

NCI-H1755 = test system: NCI-H1755
Summary of the method: as §1

PC-14 = test system: PC-14
Summary of the method: as §1

NCI-H1355 = test system: NCI-H1355
Summary of the method: as §1

NCI-H1666 = test system: NCI-H1666
Summary of the method: as §1

NCI-H1648 = test system: NCI-H1648
Summary of the method: as §1

RERF-LC-KJ = test system: RERF-LC-KJ
Summary of the method: as §1

NCI-H2085 = test system: NCI-H2085
Summary of the method: as §1

NCI-H2126 = test system: NCI-H2126
Summary of the method: as §1

NCI-H647 = test system: NCI-H647
Summary of the method: as §1

LCLC-103H = test system: LCLC-103H
Summary of the method: as §1

C=C1C(=O)O[C@@H](CCCCCCCC)[C@@H]1C(=O)O [C-75] + Nc1ncn([C@H]2C[C@H](O)[C@@H](CO)O2)c(=O)n1 [Decitabine] (partner 2 µM)
relative viability (NCI-H322M; first compound 0.08 µM): 0.693
relative viability (NCI-H322M; first compound 0.253 µM): 0.782
relative viability (NCI-H322M; first compound 0.8 µM): 0.604
relative viability (NCI-H322M; first compound 8 µM): 0.66
relative viability (SK-LU-1; first compound 0.08 µM): 0.64
relative viability (SK-LU-1; first compound 0.253 µM): 0.588
relative viability (SK-LU-1; first compound 0.8 µM): 0.616
relative viability (SK-LU-1; first compound 2.53 µM): 0.532
relative viability (SK-LU-1; first compound 8 µM): 0.467
relative viability (NCI-H3122; first compound 0.08 µM): 0.423
relative viability (NCI-H3122; first compound 0.253 µM): 0.486
relative viability (NCI-H3122; first compound 0.8 µM): 0.355
relative viability (NCI-H3122; first compound 2.53 µM): 0.346
relative viability (NCI-H3122; first compound 8 µM): 0.455
relative viability (NCI-H1915; first compound 0.08 µM): 0.254
relative viability (NCI-H1915; first compound 0.253 µM): 0.24
relative viability (NCI-H1915; first compound 0.8 µM): 0.296
relative viability (NCI-H1915; first compound 2.53 µM): 0.24
relative viability (NCI-H1915; first compound 8 µM): 0.225
relative viability (EMC-BAC-2; first compound 0.08 µM): 1.02
relative viability (EMC-BAC-2; first compound 0.253 µM): 0.984
relative viability (EMC-BAC-2; first compound 0.8 µM): 0.983
relative viability (EMC-BAC-2; first compound 2.53 µM): 0.834
relative viability (EMC-BAC-2; first compound 8 µM): 0.947
relative viability (NCI-H1975; first compound 0.08 µM): 0.373
relative viability (NCI-H1975; first compound 0.253 µM): 0.334
relative viability (NCI-H1975; first compound 0.8 µM): 0.32
relative viability (NCI-H1975; first compound 2.53 µM): 0.299
relative viability (NCI-H1975; first compound 8 µM): 0.431
relative viability (NCI-H2342; first compound 0.08 µM): 0.749
relative viability (NCI-H2342; first compound 0.253 µM): 0.785
relative viability (NCI-H2342; first compound 0.8 µM): 0.667
relative viability (NCI-H2342; first compound 2.53 µM): 0.57
relative viability (NCI-H2342; first compound 8 µM): 0.722
relative viability (NCI-H1437; first compound 0.08 µM): 0.57
relative viability (NCI-H1437; first compound 0.253 µM): 0.586
relative viability (NCI-H1437; first compound 0.8 µM): 0.577
relative viability (NCI-H1437; first compound 8 µM): 0.48
relative viability (SW 900; first compound 0.08 µM): 0.413
relative viability (SW 900; first compound 0.253 µM): 0.489
relative viability (SW 900; first compound 0.8 µM): 0.46
relative viability (SW 900; first compound 2.53 µM): 0.401
relative viability (SW 900; first compound 8 µM): 0.403
relative viability (LK-2; first compound 0.08 µM): 0.309
relative viability (LK-2; first compound 0.253 µM): 0.374
relative viability (LK-2; first compound 0.8 µM): 0.306
relative viability (LK-2; first compound 2.53 µM): 0.232
relative viability (LK-2; first compound 8 µM): 0.271
relative viability (NCI-H838; first compound 0.08 µM): 0.445
relative viability (NCI-H838; first compound 0.253 µM): 0.45
relative viability (NCI-H838; first compound 0.8 µM): 0.434
relative viability (NCI-H838; first compound 2.53 µM): 0.369
relative viability (NCI-H838; first compound 8 µM): 0.372
relative viability (NCI-H1944; first compound 0.08 µM): 0.423
relative viability (NCI-H1944; first compound 0.253 µM): 0.471
relative viability (NCI-H1944; first compound 0.8 µM): 0.35
relative viability (NCI-H1944; first compound 2.53 µM): 0.368
relative viability (NCI-H1944; first compound 8 µM): 0.461
relative viability (NCI-H460; first compound 0.08 µM): 0.469
relative viability (NCI-H460; first compound 0.253 µM): 0.454
relative viability (NCI-H460; first compound 0.8 µM): 0.46
relative viability (NCI-H460; first compound 2.53 µM): 0.198
relative viability (NCI-H460; first compound 8 µM): 0.492
relative viability (NCI-H1755; first compound 0.08 µM): 0.683
relative viability (NCI-H1755; first compound 0.253 µM): 0.713
relative viability (NCI-H1755; first compound 0.8 µM): 0.684
relative viability (NCI-H1755; first compound 2.53 µM): 0.646
relative viability (NCI-H1755; first compound 8 µM): 0.681
relative viability (PC-14; first compound 0.08 µM): 0.226
relative viability (PC-14; first compound 0.253 µM): 0.233
relative viability (PC-14; first compound 0.8 µM): 0.216
relative viability (PC-14; first compound 2.53 µM): 0.191
relative viability (PC-14; first compound 8 µM): 0.168
relative viability (NCI-H1355; first compound 0.08 µM): 0.333
relative viability (NCI-H1355; first compound 0.253 µM): 0.374
relative viability (NCI-H1355; first compound 0.8 µM): 0.36
relative viability (NCI-H1355; first compound 2.53 µM): 0.324
relative viability (NCI-H1355; first compound 8 µM): 0.355
relative viability (NCI-H1666; first compound 0.08 µM): 0.741
relative viability (NCI-H1666; first compound 0.253 µM): 0.786
relative viability (NCI-H1666; first compound 0.8 µM): 0.709
relative viability (NCI-H1666; first compound 2.53 µM): 0.638
relative viability (NCI-H1666; first compound 8 µM): 0.678
relative viability (NCI-H1648; first compound 0.08 µM): 0.487
relative viability (NCI-H1648; first compound 0.253 µM): 0.671
relative viability (NCI-H1648; first compound 0.8 µM): 0.473
relative viability (NCI-H1648; first compound 8 µM): 0.492
relative viability (RERF-LC-KJ; first compound 0.08 µM): 0.682
relative viability (RERF-LC-KJ; first compound 0.253 µM): 0.848
relative viability (RERF-LC-KJ; first compound 0.8 µM): 0.613
relative viability (RERF-LC-KJ; first compound 2.53 µM): 0.568
relative viability (RERF-LC-KJ; first compound 8 µM): 0.605
relative viability (NCI-H2085; first compound 0.08 µM): 0.535
relative viability (NCI-H2085; first compound 0.253 µM): 0.587
relative viability (NCI-H2085; first compound 0.8 µM): 0.465
relative viability (NCI-H2085; first compound 2.53 µM): 0.447
relative viability (NCI-H2085; first compound 8 µM): 0.434
relative viability (NCI-H2126; first compound 0.08 µM): 0.598
relative viability (NCI-H2126; first compound 0.253 µM): 0.617
relative viability (NCI-H2126; first compound 0.8 µM): 0.609
relative viability (NCI-H2126; first compound 2.53 µM): 0.561
relative viability (NCI-H2126; first compound 8 µM): 0.534
relative viability (NCI-H647; first compound 0.08 µM): 0.332
relative viability (NCI-H647; first compound 0.253 µM): 0.422
relative viability (NCI-H647; first compound 0.8 µM): 0.365
relative viability (NCI-H647; first compound 2.53 µM): 0.306
relative viability (NCI-H647; first compound 8 µM): 0.234
relative viability (LCLC-103H; first compound 0.08 µM): 0.697
relative viability (LCLC-103H; first compound 0.253 µM): 0.716
relative viability (LCLC-103H; first compound 0.8 µM): 0.674
relative viability (LCLC-103H; first compound 2.53 µM): 0.623
relative viability (LCLC-103H; first compound 8 µM): 0.725

Reference: the supplement of paper PMC10307832
